Results taken from patent publication US8193378B2, “2H-chromene compound and derivative thereof” (Astellas Pharma Inc., priority 2008, dated 2012).

How the values were obtained:
human S1P1 = target: T1, human S1P1 (Homo sapiens, UniProt P21453); experiment: Ca2+ influx assay using human S1P1 expressing cell (Test Example 1, Method 2); format: cell-based; details: method 2, Ca2+ influx, human S1P1 expressing CHO cell (values with *); read-out: A: EC50, in vitro S1P1 agonist action (value with *)
T1 construct: expressed in transfected cells; membrane fraction used
T1 sequence (P21453 whole entry): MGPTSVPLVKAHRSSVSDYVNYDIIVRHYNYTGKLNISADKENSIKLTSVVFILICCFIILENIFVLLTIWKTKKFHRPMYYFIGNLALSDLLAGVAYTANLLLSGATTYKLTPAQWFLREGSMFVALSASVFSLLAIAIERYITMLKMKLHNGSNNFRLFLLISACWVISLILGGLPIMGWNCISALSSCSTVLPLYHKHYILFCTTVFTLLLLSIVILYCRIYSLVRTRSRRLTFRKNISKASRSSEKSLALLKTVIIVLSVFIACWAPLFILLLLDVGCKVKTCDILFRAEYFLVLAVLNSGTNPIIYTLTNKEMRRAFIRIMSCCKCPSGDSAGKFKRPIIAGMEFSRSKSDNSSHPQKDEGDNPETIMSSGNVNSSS
Experimental: Evaluation of In Vitro S1P1 Receptor Agonist Activity in Biological Body
(Method 2) Method for Evaluation of Receptor Agonist Action by Ca^2+ Influx Assay Using Human S1P1 Expressing Cell
The in vitro S1P1 agonist action of the compound of the present invention was evaluated by the increase in the Ca^2+ concentration in a human S1P1 expressing cell. A cDNA encoding a human S1P1 was cloned from a human colorectal cDNA library and introduced to an expression vector pcDNA3.1 to construct a S1P1-pcDNA3.1. Then, by Lipofectamine 2000 (GIBCO), the S1P1-pcDNA3.1 was transfected into a CHO cell, and cultured in a Ham's F-12 culture medium containing 10% fetal bovine serum, 100 U/mL penicillin, 100 μg/mL streptomycin, and 1 mg/mL G418 disulfate, to obtain a stable, G418-resistant strain. The cultured human S1P1 expressing cells were isolated in a 1 mM EDTA.2Na-containing PBS and suspended in a Ham's F-12 culture medium containing 10% fetal bovine serum, 100 U/mL penicillin, and 100 μg/mL streptomycin. This cell suspension was dispensed to a 96-well plate at 50000 cells/well, and cultured at a CO2 incubator (5% CO2, 37° C.) overnight. The culture medium was replaced with a calcium-sensitive fluorescent reagent (FLIPR (registered trademark) calcium 3 assay kit, molecular device)-containing loading buffer (Hank's balance salt solution, 20 mM HEPES, 2.5 mM probenecid) and left stand at a CO2 incubator (5% CO2, 37° C.) for 1 hour. The plate was set at a Functional Drug Screening System FDSS6000 (Hamamatsu Photonics K. K.), and persistently measured 124 times every 1.02 second at an excitation wavelength of 480 nm. The test compound (final concentration 10^−12 to 10^−5 M) was added at the same time as the 12th measurement, and the change in the Ca^2+ concentration in cells was evaluated by the change in the fluorescent strength. For evaluation of the human S1P1 agonist action of the compound of the present invention and the comparative compound, the percentages with the rate of a maximum reaction to make the increase in the Ca^2+ concentration in cells saturated after the addition of the compound being set at 100% and the rate of the increase in the Ca^2+ concentration in cells by the addition of a vehicle alone being set at 0% were used, a non-linear regression curve was plotted, and a concentration to cause an agonist action operating 50% of the maximum reaction was defined as an EC50 value (nM).

[1] = test system: peripheral blood lymphocytes; experiment: Reduction of number of peripheral blood lymphocytes in rat (Test Example 2); format: in vivo; details: Lymphocyte, male Lewis rats, oral, 24 hours after administration, read-out: B: ED50 24 h, reduction of number of lymphocytes in peripheral blood
Experimental: Evaluation of Reduction of Number of Peripheral Blood Lymphocytes in Rat
The action on the peripheral blood lymphocytes were evaluated using rats. 6- to 10-week-old male Lewis rats (Japan Charles River Laboratories Japan, Inc.) were randomly divided into groups (n=3), and the compound of the present invention was suspended in 0.5% methyl cellulose-containing distilled water, and orally administered with a sonde. At 4 hours or 24 hours after administration, 0.2 ml of blood was collected from the ocular fundus under ether anesthesia. To the blood sample were immediately added EDTA.4K and heparin to prevent clotting, and the number of the lymphocytes in blood was measured with an automatic hematocyte analyzer (Sysmex Corp.; XT-2000i). For the reduction of the number of the lymphocytes in peripheral blood by the compound of the present invention, the percentage with the number of the lymphocytes in groups administered with 0.5% methyl cellulose-containing distilled water being set at 100%, as performed at the same time, were used, and the dose to cause 50% reduction of the number of the lymphocytes in the peripheral blood by administration of the compound of the present invention was defined as an ED50 value (mg/kg).

[2] = Infrequent pulse expression using awake rats (Test Example 5); format: in vivo, rat; details: awake male Lewis rats, intravenous infusion for 10 minutes, 1 mg/kg administration
Experimental: Evaluation of Infrequent Pulse Expression Using Awake Rats Male Lewis rats were anesthetized with isoflurane inhalation and a polyethylene tube was intubated into the femoral artery and vein. It was connected to a blood pressure measuring amplifier•heart rate unit via a pressure transducer from an arterial line, and the arterial blood pressure and the heart rate were measured. Intravenous line from Vehicle (10% HCO40/tween80/PEG, 90% saline) and the present compounds were intravenously infused persistently at a rate of 1 mL/kg/min for 10 minutes. The measurement data were read (for a total evaluation time of 20 minutes) from a chart of the values before administration, at 1, 2, 5, and 10 min after the start of constant infusion, and at 1, 2, 5, and 10 min after the completion of infusion, and thus, for the heart rate and the blood pressure before administration, the decrease rates (%) before and after infusion were calculated.

| SMILES | EC50 (human S1P1) [nM] | ED50 [1] [mg/kg] | influence on the heart rate and the blood pressure [2] | infrequent pulse expression [2] |
| --- | --- | --- | --- | --- |
| Cl.O=C(O)[C@@H]1CCCN(CC2=Cc3c(F)cc(OCc4ccc(OC(CF)CF)c(Cl)c4)cc3OC2)C1 [Ex 223] | 1.1 | 0.32 | – | – |
| Cl.O=C(O)[C@H]1CCCN(CC2=Cc3c(F)cc(OCc4ccc(OC(CF)CF)c(C(F)(F)F)c4)cc3OC2)C1 [Ex 230] | 7 | 0.19 | does not have an influence | not expressed |
| Cl.O=C(O)[C@H]1CCCN(CC2=Cc3c(F)cc(OCc4ccc(OCC(F)(F)F)c(C(F)(F)F)c4)cc3OC2)C1 [Ex 236] | 32 | 0.1 | – | – |
